Data set [1] can be described thus: ABTS radical cation scavenging (antioxidant) assay. The conditions noted are these: 20 µl of 1 mg/ml test sample (L-ascorbic acid 20 µl, 2 mM). As for the experimental part:
The absorbance (Acontrol) of a green-blue solution (ABTS^+ radical solution) resulted from a mixture of ABTS and manganese dioxide (MnO2) and was recorded at λmax 734 nm, according to the reported procedure[64]^,[65]. The absorbance (Atest) was measured upon the addition of 20 µl of 1 mg/ml solution of the test sample in spectroscopic grade methanol/phosphate buffer (1:1 v/v) to the ABTS solution. The decrease in absorbance is expressed as % inhibition, which can be calculated from the following equation: % inhibition = Acontrol-Atest/Acontrol×100.
L-Ascorbic acid 20 µl (2 mM) solution was used as standard antioxidant (positive control). A blank sample was run using only methanol/phosphate buffer (1:1), while the negative control was run with ABTS and the methanol/phosphate buffer.
The assay is based on measuring the ability of the tested compounds to scavenge the long-life radical cation of ABTS[22]^,[43]^,[64]^,[65].

In another data set the test system is HepG2 cells. Description: MTT antitumour assay, HepG2. The format is cell-based. The following applies: human hepato-cellular carcinoma cell line, mean ± SD, n = 3. As for the experimental part:
(§1) The evaluation of the antitumour activity was performed using tetrazolium salt MTT (3-(4,5-dimethyl-2-thiazolyl)-2,5-diphenyl-2H-tetrazolium bromide) assay as reported[62]^,[63].
(§2) The designed compounds were evaluated for their in vitro antitumour effects via the standard 3-(4,5-dimethylthiazol-2-yl)-2,5-diphenyltetrazolium bromide (MTT) method against a panel of four human tumour cell lines; namely, hepatocellular carcinoma cell line (HepG2), breast cancer cell line (MCF-7), human cervical cancer cell line (HeLa), and prostate cancer cell line (PC-3)[62]^,[63]^,[72]. The antitumour activities of the designed compounds 4–12, along with that of the reference drugs 5-FU and afatinib are shown in Table 1.
(Formazan colour is commonly taken as a measure of viable cells.)

The subject of another data set is HeLa cells. Description: MTT antitumour assay, HeLa. The conditions noted are these: human cervical epithelioid carcinoma cell line, mean ± SD, n = 3. The data set is classed as cell-based. How it is done:
as §1
The designed compounds were evaluated for their in vitro antitumour effects via the standard 3-(4,5-dimethylthiazol-2-yl)-2,5-diphenyltetrazolium bromide (MTT) method against a panel of four human tumour cell lines; namely, hepatocellular carcinoma cell line (HepG2), breast cancer cell line (MCF-7), human cervical cancer cell line (HeLa), and prostate cancer cell line (PC-3)[62]^,[63]^,[72].

The subject of a further data set is PC-3 cells. Description: MTT antitumour assay, PC-3. The format is cell-based. The conditions noted are these: PC-3; MTT; human prostate cancer cell line; mean ± SD, n = 3. How it is done:
as §1, §2

Another data set deals with MCF-7 cells. Description: MTT antitumour assay, MCF-7. The format is cell-based. The following applies: MCF7, human breast adenocarcinoma cell line, mean ± SD, n = 3. How it is done:
as §1, §2

In data set [2] the test system is HepG2, MCF-7, HeLa, and PC-3 cancer cell lines. Description: MTT antitumour assay, range over the four cell lines. The data set is classed as cell-based, human. The conditions noted are these: Homo sapiens, range over HepG2, MCF-7, HeLa, PC-3 (and over the compounds named), read-out: IC50 range against the tested cell lines. As for the experimental part:
as §1, §2

Another data set addresses EGFR kinase (Homo sapiens, UniProt P00533). Description: ELISA-based EGFR kinase inhibition assay. The following applies: for Conc. (Average), ELISA read-out: duplicate wells, standards in ng/ml, cont 134.9. A general note: In an ELISA, binding on a coated surface is turned into a signal by an enzyme label.

Molecules are shown by their SMILES.

Chain of EGFR kinase (P00533 25-1210): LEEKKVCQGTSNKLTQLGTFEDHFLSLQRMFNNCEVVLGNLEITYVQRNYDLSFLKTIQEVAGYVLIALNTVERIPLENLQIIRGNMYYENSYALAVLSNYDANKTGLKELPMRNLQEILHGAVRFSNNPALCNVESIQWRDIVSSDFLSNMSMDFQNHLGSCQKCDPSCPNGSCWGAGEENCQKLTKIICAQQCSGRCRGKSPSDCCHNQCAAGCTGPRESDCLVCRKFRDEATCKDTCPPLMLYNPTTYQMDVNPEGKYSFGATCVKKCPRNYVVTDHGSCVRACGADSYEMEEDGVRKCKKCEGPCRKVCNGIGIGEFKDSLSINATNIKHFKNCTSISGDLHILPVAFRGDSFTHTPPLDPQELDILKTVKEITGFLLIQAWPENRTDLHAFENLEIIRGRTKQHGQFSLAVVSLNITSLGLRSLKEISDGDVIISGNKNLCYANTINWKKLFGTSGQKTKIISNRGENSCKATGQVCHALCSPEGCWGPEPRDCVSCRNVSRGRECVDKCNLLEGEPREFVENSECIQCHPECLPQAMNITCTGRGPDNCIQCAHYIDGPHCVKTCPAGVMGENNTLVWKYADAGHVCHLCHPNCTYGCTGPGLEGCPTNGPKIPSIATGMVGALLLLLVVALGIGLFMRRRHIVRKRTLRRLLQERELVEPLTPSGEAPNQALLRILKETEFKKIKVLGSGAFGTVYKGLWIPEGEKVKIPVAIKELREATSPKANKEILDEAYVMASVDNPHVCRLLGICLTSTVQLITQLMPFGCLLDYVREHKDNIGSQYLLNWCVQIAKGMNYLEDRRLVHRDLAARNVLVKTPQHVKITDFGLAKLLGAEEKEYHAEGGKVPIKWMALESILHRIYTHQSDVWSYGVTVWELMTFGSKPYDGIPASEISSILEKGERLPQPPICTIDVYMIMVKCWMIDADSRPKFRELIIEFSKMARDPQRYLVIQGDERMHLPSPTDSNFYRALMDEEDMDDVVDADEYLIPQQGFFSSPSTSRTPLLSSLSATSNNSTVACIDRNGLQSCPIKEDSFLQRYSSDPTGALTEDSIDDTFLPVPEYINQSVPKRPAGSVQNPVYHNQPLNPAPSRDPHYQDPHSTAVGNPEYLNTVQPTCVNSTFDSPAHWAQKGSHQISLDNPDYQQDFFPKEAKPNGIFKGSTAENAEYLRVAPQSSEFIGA

For orientation: IC50 means the concentration that inhibits the measured activity by half. Broadly, the melting point is the temperature, or range, at which the solid turns liquid. `Cc1ccc(C2=NOC(c3ccc(OC4CCCC4)cc3)C2)cc1` (stereo not shown) [compound 9, 5-(4-(cyclopentyloxy)phenyl)-3-(4-methylphenyl)-4,5-dihydroisoxazole] had a melting point of 120 to 122 °C. The “%Inhibition of the ABTS radical cation” value in data set [1] is listed as 60.0%. In the data set with HepG2 cells, the 50% inhibitory concentration (IC50) worked out at 62.3 ± 4.1 µM. Moreover, it took 46.2 ± 3.3 µM to reach half-maximal inhibition in the data set with HeLa cells (IC50). The same compound came in with an IC50 in the data set with PC-3 cells of 50.1 ± 3.55 µM. Besides, the midpoint of inhibition with MCF-7 cells, the IC50, lay at 58.4 ± 4.5 µM.
In the case of `O=C(O)c1cc(C=Cc2ccc(OC3CCCC3)cc2)nc2ccc(F)cc12` [12b, 2-(4-(Cyclopentyloxy)styryl)-6-fluoroquinoline-4-carboxylicacid], the melting point is greater than 300 °C. Moreover, the “%Inhibition of the ABTS radical cation” value in data set [1] is listed as 50.0%. The compound also displayed an IC50 with HepG2 cells of 30.8 ± 2.07 µM. For the same compound, the 50% inhibitory concentration (IC50) with HeLa cells was determined as 66.8 ± 4.07 µM. Besides, the IC50 with PC-3 cells is 69.4 ± 4.32 µM. Also, the IC50 with MCF-7 cells stood at 48.1 ± 3.25 µM.
Consider `Cc1ccc(C2=NNC(c3ccc(OC4CCCC4)cc3)C2)cc1` (stereo not shown) [8a, 5-(4-(Cyclopentyloxy)phenyl)-3-(4-methylphenyl)-4,5-dihydro-1H-pyrazole], for which the melting point lay within 145 to 146 °C. Further, the “%Inhibition of the ABTS radical cation” value in data set [1] is given as 53.0%. The midpoint of inhibition in the data set with HepG2 cells, the IC50, lay at 18.9 ± 1.35 µM. This compound displayed an IC50 in the data set with HeLa cells of 16.2 ± 1.36 µM. The compound also showed an IC50 in the data set on PC-3 cells of 12.7 ± 1.13 µM. Moreover, the midpoint of inhibition in the data set with MCF-7 cells, the IC50, lay at 29.3 ± 1.97 µM.
As to `Cc1ccc(-c2cc(-c3ccc(OC4CCCC4)cc3)c(C#N)c(=O)[nH]2)cc1` [compound 10, 4-(4-(cyclopentyloxy)phenyl)-2-oxo-6-(4-methylphenyl)-1,2-dihydropyridine-3-carbonitrile], the melting point was 278 to 280 °C. The compound also yielded an IC50 with HepG2 cells of 80.9 ± 5.34 µM. This compound also came in with an IC50 in the data set with HeLa cells of 51.2 ± 3.82 µM. This compound registered an IC50 in the data set on PC-3 cells of 41.9 ± 2.87 µM. Besides, the IC50 in the data set with MCF-7 cells came out at 70.9 ± 4.98 µM.
As to `Cc1ccc(-c2cc(-c3ccc(OC4CCCC4)cc3)c(C#N)c(N)n2)cc1` [compound 11, 2-amino-4-(4-(cyclopentyloxy)phenyl)-6-(4-methylphenyl)nicotinonitrile], the melting point lay within 272 to 273 °C. In the data set with HepG2 cells, this compound gave a half-inhibitory concentration (IC50) of 92.9 ± 5.82 µM. In the data set with HeLa cells, the IC50 came out at 62.4 ± 3.8 µM. The compound further displayed an IC50 in the data set with PC-3 cells of 87.7 ± 5.41 µM. The compound also had a concentration for half-maximal inhibition (IC50) in the data set on MCF-7 cells of 97.3 ± 5.51 µM.
For `O=C(O)c1cc(C=Cc2ccc(OC3CCCC3)cc2)nc2ccc(Br)cc12` [12a, 6-Bromo-2-(4-(cyclopentyloxy)styryl)quinoline-4-carboxylicacid], the melting point is greater than 300 °C. The IC50 in the data set on HepG2 cells turned out to be 85.4 ± 5.31 µM. In the data set on HeLa cells, this compound displayed an IC50 of 89.4 ± 4.89 µM. In addition, the half-inhibitory concentration (IC50) with PC-3 cells is greater than 100 µM. Also, the IC50 in the data set on MCF-7 cells came out at 87.1 ± 5.24 µM.
A word on the inhibition: it is the percentage by which the read-out fell short of the control. As to `CCOC(=O)C1=C(C)OC(N)=C(C#N)C1c1ccc(OC2CCCC2)cc1` (stereo not shown) [compound 7, ethyl 6-amino-5-cyano-4-(4-(cyclopentyloxy)phenyl)-2-methyl-4H-pyran-3-carboxylate], in data set [1], the “%Inhibition of the ABTS radical cation” value came to 75.8%. The half-inhibitory concentration (IC50) in the data set with HepG2 cells is 8 ± 0.38 µM; in the data set with HeLa cells, 10.3 ± 1.13 µM; in the data set on PC-3 cells, 13.3 ± 1.26 µM; in data set [2], 5.5 to 18.1 µM; in the data set with MCF-7 cells it was 7.5 ± 0.54 µM; against EGFR kinase it was 1600 nM. The “% Inhibition EGFR” value at EGFR kinase (0.15 μM) worked out at 8.22%; at EGFR kinase (0.31 μM), 31.78%; on EGFR kinase (0.625 μM), 43.27%; on EGFR kinase (1.25 μM), 49.65%; at EGFR kinase (2.5 μM) it was 52.86%; on EGFR kinase (5.0 μM), 65.98%. Besides, the “% Inhibition EGFR” value at EGFR kinase (10.0 μM) is given as 72.78%. Further, the inhibition at 0.15 µM at EGFR kinase (read-out: % Inhibition EGFR, 0.15 μM) was determined as 8.23%. Also, the inhibition at 0.31 µM on EGFR kinase (read-out: % Inhibition EGFR, 0.31 μM) came out at 31.8%. For the same compound, the inhibition at 0.625 µM on EGFR kinase (read-out: % Inhibition EGFR, 0.625 μM) is 43.3%. On EGFR kinase (read-out: % Inhibition EGFR, 1.25 μM), the inhibition at 1.25 µM was 49.7%. The inhibition at 2.5 µM at EGFR kinase (read-out: % Inhibition EGFR, 2.5 μM) was determined as 52.9%. Besides, the inhibition at 5 µM on EGFR kinase (read-out: % Inhibition EGFR, 5.0 μM) turned out to be 66%. Moreover, the inhibition at 10 µM on EGFR kinase (read-out: % Inhibition EGFR, 10.0 μM) stood at 72.8%. The “Conc. (Average), ELISA read-out” value at EGFR kinase (sample at 0.15uM) turned out to be 123.8; at EGFR kinase (sample at 0.31uM) it was 92.02; at EGFR kinase (sample at 0.62uM), 76.52; on EGFR kinase (sample at 1.25uM) it was 67.92; on EGFR kinase (sample at 2.5uM), 63.59; on EGFR kinase (sample at 5uM) it was 45.89. For the same compound, the “Conc. (Average), ELISA read-out” value on EGFR kinase (sample at 10uM) worked out at 36.71.

Values taken from paper PMC6010098, “Synthesis, antitumour and antioxidant activities of novel α,β-unsaturated ketones and related heterocyclic analogues: EGFR inhibition and molecular modelling study” (Journal of Enzyme Inhibition and Medicinal Chemistry, 2018).
